# Literature values, collected in patent US10478472B2, “Combination of tolerogenic peptides and TFG-B for use in the induction and maintenance of oral tolerance in young mammals” (NESTEC S.A., priority 2015, dated 2019).
# Conditions: identified as part of a longer peptide sequence in WO2000/42863
row,Substance,inducers of oral tolerance
1,"VLDTDY (listed as Bos taurus) [SEQ ID No. 7, BLG peptide, position 110-115]",inducers of oral tolerance
2,"EVDDEALEK (listed as Bos taurus) [SEQ ID No. 8, BLG peptide, position 143-151]",inducers of oral tolerance
3,"IDALNENK (listed as Bos taurus) [SEQ ID No. 6, BLG peptide, position 100-107]",inducers of oral tolerance
